Laboratory results: patent US8557512B2, “Method of screening activators and/or inhibitors of insulin receptor substrate 2” (HMI Medical Innovations, LLC, priority 2003, dated 2013)
Where no end group is shown, it is not given here.

Legend:
IRS2 mice = test: Restoration of normal glucose homeostasis in IRS2 mice; format: in vivo; conditions: administration by injection
Description: (§1) Furthermore, GLP-1 also stimulates β-cell proliferation and neogenesis, and reduces or eliminates apoptosis of β-cells.

IRS2 [1] = test: IRS2 levels in human islets; format: cell-based
Description: (§2) Drugs that increase IRS2 expression in mice stimulate beta cell function. An example of such a drug is exendin-4. Exendin-4 is a homolog of the natural peptide produced in the intestine called glucagon-like peptide-1. GLP1/Ex4 upregulates IRS2 levels in β-cells because they stimulate the production of cAMP. […] Other drugs that increase cAMP levels in these and other cells also increase IRS2 levels and stimulate its signaling pathways. Many of the positive actions of GLPL1/Ex4 on mouse and human cells are prevented by blocking the IRS2 gene from expressing its IRS2 protein product.

IRS2 [2] = test: IRS2 levels in mouse islets; format: cell-based
Description: as §2

IRS2 [3] = conditions: β-cell lines; Jhala et al., Genes Dev. 17:1575-1580 (2003); cited from earlier work
IRS2 [4] = test: IRS2 upregulation in beta cells and other cells; format: cell-based
Description: as §1

## exendin-4
IRS2 mice
  restore normal glucose homeostasis: unsuccessful
IRS2 [1]
  levels of IRS2: upregulate the levels of IRS2
IRS2 [2]
  levels of IRS2: upregulate the levels of IRS2
IRS2 [3]
  IRS2 expression: strongly increases IRS2 expression

## glucagon-like peptide-1 (HAEGTFTSDVSSYLEGQAAKEFIAWLVKGR; ends and bridges not checked; UniProt P01275 98-127, looked up) [GLP-1, natural peptide produced in the intestine]
IRS2 [4]
  IRS2 upregulation: strongly up regulates IRS2
IRS2 [1]
  levels of IRS2: upregulate the levels of IRS2
IRS2 [2]
  levels of IRS2: upregulate the levels of IRS2
IRS2 [3]
  IRS2 expression: strongly increases IRS2 expression
